According to ChEMBL document CHEMBL3632547, “Discovery of 3,5-substituted 6-azaindazoles as potent pan-Pim inhibitors” (Bioorg Med Chem Lett, 2015):

How the values were obtained:
[1] = target: Serine/threonine-protein kinase pim-3 (Homo sapiens, UniProt Q86V86)
[2] = target: Serine/threonine-protein kinase pim-2 (Homo sapiens, UniProt Q9P1W9)
[3] = target: Serine/threonine-protein kinase pim-1 (Homo sapiens, UniProt P11309)
[4] = Apparent permeability from apical to basolateral side in MDCK cells; format: ADME, cell-based, Canis lupus familiaris; details: dog
[5] = Intrinsic clearance from rat liver microsomes; format: ADME; details: read-out: CLH
BaF3 = assay: Ratio of IC50 for wild type interleukin-3 dependent mouse BA/F3 cells to IC50 for interleukin-3 independent mouse BA/F3 cells expressing PIM1; format: functional
[6] = Oral bioavailability in rat; format: ADME, organism-based; details: in vivo
[7] = Plasma protein binding in rat; format: ADME, cell-free; details: read-out: PPB (converted)
[8] = Cytotoxicity against wild type interleukin-3 dependent mouse BA/F3 cells after 72 hrs by CellTiter-Glo assay; format: functional, cell-based; details: BaF3, 72 h
[9] = Cytotoxicity against interleukin-3 independent mouse BA/F3 cells expressing PIM1 after 72 hrs by CellTiter-Glo assay; format: functional, cell-based; details: BaF3, 72 h
[10] = Plasma clearance in rat; format: ADME, organism-based
[11] = Cytotoxicity against human MM1S cells after 72 hrs by CellTiter-Glo assay; format: functional, cell-based; details: MM1.S
[12] = Efflux ratio of apparent permeability from basolateral to apical over apical to basolateral side in MDCK cells; format: ADME, cell-based, Canis lupus familiaris; details: dog

Chain of Serine/threonine-protein kinase pim-2 (Q9P1W9 whole entry): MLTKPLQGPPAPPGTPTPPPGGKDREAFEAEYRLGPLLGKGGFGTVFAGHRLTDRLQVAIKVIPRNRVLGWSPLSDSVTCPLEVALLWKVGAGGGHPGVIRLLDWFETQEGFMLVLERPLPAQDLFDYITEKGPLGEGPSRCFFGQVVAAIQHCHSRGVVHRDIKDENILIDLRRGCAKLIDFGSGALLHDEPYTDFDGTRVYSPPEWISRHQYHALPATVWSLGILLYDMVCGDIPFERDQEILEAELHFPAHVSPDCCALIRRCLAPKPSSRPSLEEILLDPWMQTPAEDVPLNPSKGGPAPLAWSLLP
Chain of Serine/threonine-protein kinase pim-1 (P11309 whole entry): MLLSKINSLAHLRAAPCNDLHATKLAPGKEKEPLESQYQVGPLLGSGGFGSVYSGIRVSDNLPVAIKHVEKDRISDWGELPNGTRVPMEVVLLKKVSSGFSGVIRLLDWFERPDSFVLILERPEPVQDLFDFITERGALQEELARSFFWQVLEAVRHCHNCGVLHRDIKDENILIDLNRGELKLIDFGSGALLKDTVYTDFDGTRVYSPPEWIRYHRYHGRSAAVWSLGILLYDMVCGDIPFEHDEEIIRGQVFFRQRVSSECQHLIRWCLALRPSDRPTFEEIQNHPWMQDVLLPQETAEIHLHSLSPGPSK

SMILES | Ki [1] [nM] | Ki [2] [nM] | Ki [3] [nM] | other results
Cn1cc(-c2cc3c(-c4cccc(O[C@@H]5CCCNC5)n4)n[nH]c3cn2)cn1 | 0.16 | 6.2 |  | 
Cn1cc(-c2cc3c(-c4cccc(N5CCC[C@@H](N)C5)n4)n[nH]c3cn2)cn1 | 0.021 | 0.72 |  | 
Cn1cc(-c2cc3c(-c4cccc(N5CCC[C@H](N)C5)n4)n[nH]c3cn2)cn1 | 0.015 | 0.26 |  | 
Cn1cc(-c2cc3c(-c4cccc(N5CCC[C@@H](N)C5)c4)n[nH]c3cn2)cn1 | 0.29 | 1.25 |  | 
Cc1ccc(-c2n[nH]c3cnc(-c4cnn(C)c4)cc23)nc1N1CCC[C@H](N)C1 | 0.006 | 0.088 |  | 
Cn1cc(-c2cc3c(-c4ccccn4)n[nH]c3cn2)cn1 | 3.7 | 48 |  | 
Cn1cc(-c2cc3c(-c4cccc(C5CCNCC5)n4)n[nH]c3cn2)cn1 | 0.12 | 2.2 |  | 
Fc1ccccc1-c1n[nH]c2cnc(-c3cnccc3O[C@@H]3CCCNC3)cc12 | 0.11 | 1.7 | 3.4 | 
Cc1n[nH]c2cnc(-c3cncc(N4CCC(N)CC4)n3)cc12 | 9 | 170 | 6 | 
NC1CCN(c2cncc(-c3cc4c(-c5ccccc5F)n[nH]c4cn3)n2)CC1 | 0.1 | 3 | 0.1 | 
NCCNc1cccc(-c2n[nH]c3cnc(-c4cccnc4)cc23)n1 | 0.2 | 3 | 0.3 | 
c1cncc(-c2cc3cn[nH]c3cn2)c1 | 1800 | 6000 | 1300 | 
O=C(Nc1cn[nH]c1)c1cccnc1 | 2900 | 15000 | 3300 | 
Cc1n[nH]c2cnc(-c3cccnc3)cc12 | 300 | 800 | 200 | 
Cc1c[nH]c2cnc(-c3cccnc3)cc12 | 1500 | 3900 | 800 | 
Cc1n[nH]c2cnc(-c3cn[nH]c3)cc12 | 400 | 900 |  | 
Cc1n[nH]c2ccc(-c3cn[nH]c3)cc12 | 3100 | 2700 | 3200 | 
c1ccc(-c2n[nH]c3cnc(-c4cccnc4)cc23)cc1 | 5 | 50 | 10 | 
c1ccc(-c2n[nH]c3cnc(-c4cccnc4)cc23)nc1 |  | 70 | 10 | 
Cc1n[nH]c2cnc(-c3cnccc3N3CCC[C@H](N)C3)cc12 | 5000 | 8300 |  | 
N[C@H]1CCCN(c2ccncc2-c2cc3c(-c4ccccc4F)n[nH]c3cn2)C1 | 6 | 35 |  | 

More lines, main results first:

Ki [1] [nM] | Ki [2] [nM] | Ki [3] [nM] | SMILES | other results
0.015 | 0.43 | 0.035 | Cn1cc(-c2cc3c(-c4cccc(N5CC[C@@H](N)C5)n4)n[nH]c3cn2)cn1 | 
0.041 | 0.473 |  | CCn1cc(-c2cc3c(-c4cccc(N5CCNCC5)n4)n[nH]c3cn2)cn1 | Papp A→B [4]: 0.5 ×10⁻⁶ cm/s; CLint scaled [5]: 150 mL/min/kg; Ratio IC50 (BaF3): 70; bioavailability [6]: 1%; fraction unbound [7]: 0.022; IC50 [8]: 5400 nM; IC50 [9]: 77 nM; clearance [10]: 14 mL/min/kg; IC50 [11]: 640 nM; efflux ratio [12]: 51
 | 82 | 8.5 | c1cc(-c2n[nH]c3cnc(C4CCCO4)cc23)nc(N2CCNCC2)c1 (stereo unspecified) | 
1 | 26 |  | c1cc(-c2n[nH]c3cnc(C4CCCOC4)cc23)nc(N2CCNCC2)c1 (stereo unspecified) | 
1.4 | 17 |  | O=C1CN(c2cc3c(-c4cccc(N5CCNCC5)n4)n[nH]c3cn2)CCN1 | 
4.4 | 14 |  | c1cc(-c2n[nH]c3cnc(N4CCOCC4)cc23)nc(N2CCNCC2)c1 | 
0.013 | 0.17 | 0.02 | Cn1cc(-c2cc3c(-c4cccc(N5CCCNCC5)n4)n[nH]c3cn2)cn1 | 
0.07 | 0.145 |  | CCn1cncc(-c2cc3c(-c4cccc(N5CCNCC5)n4)n[nH]c3cn2)c1=O | 
0.017 | 0.58 |  | Cn1cc(-c2cc3c(-c4cccc(N5CCNCC5)n4)n[nH]c3cn2)cn1 | 
0.013 | 0.127 |  | N#CCn1cc(-c2cc3c(-c4cccc(N5CCNCC5)n4)n[nH]c3cn2)cn1 | 
0.016 | 0.253 |  | c1cc(-c2n[nH]c3cnc(-c4cnn(CC5CC5)c4)cc23)nc(N2CCNCC2)c1 | 
0.65 | 5.4 |  | c1cc(-c2n[nH]c3cnc(-n4ccnc4)cc23)nc(N2CCNCC2)c1 | 
115 | 1100 |  | NC(=O)Cc1cc2c(-c3cccc(N4CCNCC4)n3)n[nH]c2cn1 | 
0.68 | 1.1 |  | NC(=O)Nc1cc2c(-c3cccc(N4CCNCC4)n3)n[nH]c2cn1 | 
3.3 | 33 |  | CN1C(=O)CN(c2cc3c(-c4cccc(N5CCNCC5)n4)n[nH]c3cn2)C1=O | 
0.01 | 0.5 | 0.04 | c1cncc(-c2cc3c(-c4cccc(N5CCNCC5)n4)n[nH]c3cn2)c1 | 
0.037 | 0.3 |  | Cc1cncc(-c2cc3c(-c4cccc(N5CCNCC5)n4)n[nH]c3cn2)c1 | 
0.01 | 0.049 |  | Cc1cncc(-c2cc3c(-c4cccc(N5CCNCC5)n4)n[nH]c3cn2)n1 | 
